Read-outs that look alike come from different tables or passages of the source. Residues, ends and D or L forms follow the SMILES beside them.

Data set [1] relates to E. coli. The data set is described as follows: SYTOX Green uptake (membrane permeabilization). It is filed as cell-based, Escherichia coli. As to conditions: 4 µM peptide; 10^7 CFU, 1 µM SYTOX Green, 37°C. As to the method: Briefly, bacteria (10^7 CFU) were prepared and mixed with 1 µM SYTOX Green (Invitrogen) for 15 minutes in the dark. […] Melittin (Sigma), the major toxin of bee venom, was used as a positive control to provide maximal permeabilization.

In data set [2] the test system is Staphylococcus aureus ATCC 19636. The data set is described as follows: Sepsis survival model, i.p. inoculation. In kind it is in vivo. As to conditions: 4×10^6 CFU/mouse i.p., n = 10. The method, then:
(§1) Three-week old male ICR mice (19 to 21 g) were purchased from BioLASCO (Taiwan). Overnight culture of bacteria in BHI broth (Difco) was subcultured in fresh BHI broth to log phase. Inoculums were diluted in BHI broth to indicated densities. To test the acute toxicity of ARD peptide in vivo, ICR male mice were inoculated intraperitoneally (i.p.) with 10 and 20 mg/kg HBc147-183 in PBS, respectively. Each group contained 5 mice. After peptide injection, the number of dead mice was recorded daily for 7 days post-injection. To test the antimicrobial activity of the ARD peptide in vivo, all mice were inoculated i.p. with Staphylococcus aureus ATCC 19636 (4×10^6 CFU/mouse) in BHI broth. Peptide HBc147-183 (10 mg/kg) was administered i.p. at 1, 1.5 and 2 hours post-inoculation. PBS (10 ml/kg) control was administered at 1 hour post-inoculation. […] Mortality was monitored daily for 7 days post-inoculation. […] The mice were anesthetized first before transferring to the IVIS imaging system (IVIS spectrum), and luminescence was measured with an exposure time of 1 minutes or less. The image system measured the number of photons and translated the data to false color images that depicted the region of strong luminescence with red, moderate luminescence with yellow and green, and mild luminescence with blue. […] Total flux (RLU) of region of interest (ROI) was quantified by the IVIS imaging software.

Data set [3] deals with P. aeruginosa. The data set is described as follows: Killing kinetics. In kind it is cell-based, Pseudomonas aeruginosa. The settings on record: 2 µM peptide (1×MBC), 37°C, triplicates. The method, then: For measurement of killing kinetics, bacteria and peptides were prepared as described above. Fifty µl of bacteria were mixed with fifty µl of peptides at the concentrations corresponding to MBC and were incubated at 37°C. At the indicated time, bacteria were serially diluted and placed on Mueller-Hinton broth agar plates for the viability measurement.

Data set [4] concerns ICR mice. Put plainly: Acute in vivo toxicity. Set-up: species or system mouse. The settings on record: three-week old male ICR mice, 7 days, n = 5. The method, then:
as §1

Data set [5] concerns P. aeruginosa (ATCC 27853). It is filed as cell-based, Pseudomonas aeruginosa. The essentials:
(§2)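 Peptides were incubated with buffer-suspended bacteria (10^6 CFU/ml) for 3 hours at 37°C, then cells were plated overnight to find the MBC.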

Data set [6] deals with P. aeruginosa (ATCC 9027). It is filed as cell-based, Pseudomonas aeruginosa. In a few lines: as §2
The test system of data set [7] is K. pneumonia (ATCC 13884). It is filed as cell-based, Klebsiella pneumoniae. As to conditions: 3 h at 37°C in phosphate buffer pH 7.2; triplicate.
The mark [8] stands for this setting: ampicillin-resistant strain, 3 h at 37°C in phosphate buffer pH 7.2, triplicate.

In the case of `CC(C)[C@H](NC(=O)[C@@H](NC(=O)[C@@H](N)[C@@H](C)O)C(C)C)C(=O)N[C@@H](CCCNC(=N)N)C(=O)N[C@@H](CCCNC(=N)N)C(=O)N[C@@H](CCCNC(=N)N)C(=O)NCC(=O)N[C@@H](CCCNC(=N)N)C(=O)N[C@@H](CO)C(=O)N1CCC[C@H]1C(=O)N[C@@H](CCCNC(=N)N)C(=O)N[C@@H](CCCNC(=N)N)C(=O)N[C@@H](CCCNC(=N)N)C(=O)N[C@H](C(=O)N1CCC[C@H]1C(=O)N[C@@H](CO)C(=O)N1CCC[C@H]1C(=O)N[C@@H](CCCNC(=N)N)C(=O)N[C@@H](CCCNC(=N)N)C(=O)N[C@@H](CCCNC(=N)N)C(=O)N[C@@H](CCCNC(=N)N)C(=O)N[C@@H](CO)C(=O)N[C@@H](CCC(N)=O)C(=O)N[C@@H](CO)C(=O)N1CCC[C@H]1C(=O)N[C@@H](CCCNC(=N)N)C(=O)N[C@@H](CCCNC(=N)N)C(=O)N[C@@H](CCCNC(=N)N)C(=O)N[C@@H](CCCNC(=N)N)C(=O)N[C@@H](CO)C(=O)N[C@@H](CCC(N)=O)C(=O)N[C@@H](CO)C(=O)N[C@@H](CCCNC(=N)N)C(=O)N[C@@H](CCC(=O)O)C(=O)N[C@@H](CO)C(=O)N[C@@H](CCC(N)=O)C(=O)N[C@@H](CS)C(=O)O)[C@@H](C)O` [HBc147-183] (H-TVVRRRGRSPRRRTPSPRRRRSQSPRRRRSQSRESQC-OH; N-terminus and C-terminus assumed), in data set [1], the “Membrane permeabilization (SYTOX Green uptake)” value is reported as “not able to induce membrane permeabilization”. Moreover, the “Survival rate after 7 days” value came to 70% in data set [2] (10 mg/kg i.p. at 1.5 h post-inoculation) and 40% in data set [2] (10 mg/kg i.p. at 2 h post-inoculation (peak of bacterial load in blood)). In addition, the “Time to complete killing” value in data set [3] is at most 20 min. Also, the “Survival after peptide injection (in vivo toxicity)” value in data set [4] (10 mg/kg i.p.) and in data set [4] (20 mg/kg i.p.) was “All mice were alive” in each case. The “Antimicrobial activity, MBC” value in data set [5] (ATCC 27853, 3 h, pH 7.2) was 2 to 4 µM; in data set [5] (setting [8]), 9.18 to 18.36 µg/mL; in data set [6] (ATCC 9027, 3 h, pH 7.2) it was 2 µM; in data set [6] (setting [8]), 9.18 µg/mL; in data set [7] it was 9.18 µg/mL. The “MBC against P. aeruginosa” value in data set [6] (ATCC 9027, 3 h) is reported as “lower than 4 µM”.

For the origin of these results see paper PMC3681751, “Identification of a Novel Antimicrobial Peptide from Human Hepatitis B Virus Core Protein Arginine-Rich Domain (ARD)” (PLoS Pathogens, 2013).
